According to patent US9821072B2, “Activated neurotensin molecules and the uses thereof” (priority 2014, dated 2017):

Test system: mice
Test: Tolerance / toxicity after i.v. bolus in mice (MTD, LD50)
Assay type: in vivo, mouse
Method: NT, which is similar to that measured for compound I and compound II. […] When injected at 20 mg/kg eq. NT in mice, compound XIV was still well-tolerated with no additional safety concerns. […] NT. The Maximal Tolerated Dose (MTD) was 40 mg/kg eq. […] Given that the MED was about 0.1 mg/kg eq. NT, this pharmacodynamic/toxicity profile constitutes an excellent safety prerequisite since i) it prevents potentially lethal overdose due to exacerbated pharmacological hypothermia, and ii) using the intravenous (bolus) mode of administration, the therapeutic window, which is expressed as the fold increase between the MED and MTD, is about 400, with 4-fold security between the dose level eliciting a maximal hypothermic response and that inducing mild/non-lethal toxicity.

Compound: CCC(=O)N[C@@H]1CSSC[C@@H](C(=O)NCCOCCOCCOCCOCCOCCOCCC(=O)N[C@@H](CCCNC(=N)N)C(=O)N[C@@H](CCCNC(=N)N)C(=O)N2CCC[C@H]2C(=O)N[C@@H](Cc2ccc(O)cc2)C(=O)N[C@H](C(=O)N[C@@H](CC(C)C)C(=O)O)[C@@H](C)CC)NC(=O)CN(C)C(=O)[C@H](CCCNC(=N)N)NC(=O)[C@H](CC(C)C)NC(=O)[C@H](CCCNC(=N)N)NC(=O)[C@@H]2CCCCN2C(=O)[C@H](CCSC)NC1=O [Compound XIV, Pr-cMPipRLRSarC-PEG6-RRPYIL-OH]
- tolerance (20 mg/kg eq. NT, mice): well-tolerated
- security between dose eliciting maximal hypothermic response and dose inducing mild/non-lethal toxicity (i.v. bolus): 4 fold
- therapeutic window (fold increase between the MED and MTD) (i.v. bolus): about 400 fold
- Maximal Tolerated Dose (MTD) (i.v. bolus, mice): 40 mg/kg eq. NT
- LD50 (Lethal Dose, 50%) (i.v. bolus, mice, not reached): > 40 mg/kg eq. NT
